Assay results taken from ChEMBL document CHEMBL3046383, “Enantioselective Herbicidal Activity of Chiral α-Methylbenzylphenylureas against Cyperaceae and Echinochloa Paddy Weeds” (Biosci Biotechnol Biochem, 1998).
The source made the active and inactive calls. The rule behind the calls is not given here.

Key:
[1] = system: Cyperus difformis; test: Herbicidal activity against Cyperus difformis assessed as phytotoxic activity ratings (0- no effect to 5-complete killing rating scale) at 100 g/a measured after 3 weeks post compound treatment under green house conditions; format: functional
[2] = system: Oryza sativa; test: Phytotoxicity against transplanted Oryza sativa (rice) seedlings assessed as phytotoxic activity ratings (0- no effect to 5-complete killing rating scale) at 100 g/a measured after 3 weeks post compound treatment under green house conditions; format: organism-based; conditions: in vivo, 504 h
[3] = system: Cyperus serotinus; test: Herbicidal activity against Cyperus serotinus assessed as phytotoxic activity ratings (0- no effect to 5-complete killing rating scale) at 100 g/a measured after 3 weeks post compound treatment under green house conditions; format: functional
[4] = system: Oryza sativa; test: Phytotoxicity against directly seeded Oryza sativa (rice) seedlings assessed as phytotoxic activity ratings (0- no effect to 5-complete killing rating scale) at 100 g/a measured after 3 weeks post compound treatment under green house conditions; format: organism-based; conditions: in vivo, 504 h
[5] = system: Echinochloa oryzicola; test: Herbicidal activity against Echinochloa oryzicola assessed as phytotoxic activity ratings (0- no effect to 5-complete killing rating scale) at 100 g/a measured after 3 weeks post compound treatment under green house conditions; format: functional
[6] = system: Schoenoplectiella juncoides; test: Herbicidal activity against Schoenoplectiella juncoides var. Hotarui Ohwi assessed as phytotoxic activity ratings (0- no effect to 5-complete killing rating scale) at 100 g/a measured after 3 weeks post compound treatment under green house conditions; format: functional
[7] = system: Cyperus serotinus; test: Herbicidal activity against Cyperus serotinus assessed as phytotoxic activity ratings (0- no effect to 5-complete killing rating scale) at 3.1 to 100 g/a measured after 3 weeks post compound treatment under green house conditions; format: functional

## CCc1ccccc1NC(=O)N[C@@H](C)c1ccccc1
[1]
  Activity: 40%
[2]
  Activity: 0%
[3]
  Activity: 0%
[4]
  Activity: 0%
[5]
  Activity: 0%
[6]
  Activity: 10%

## C[C@@H](NC(=O)Nc1c(F)cccc1F)c1ccccc1
[1]
  Activity: 40%
[2]
  Activity: 0%
[3]
  Activity: 40%
[5]
  Activity: 40%
[6]
  Activity: 40%

## CC(C)c1ccccc1NC(=O)N[C@@H](C)c1ccccc1
[1]
  Activity: 0%
[2]
  Activity: 0%
[3]
  Activity: 0%
[4]
  Activity: 0%
[5]
  Activity: 0%
[6]
  Activity: 0%

## CCc1ccc(NC(=O)N[C@H](C)c2ccccc2)cc1
[1]
  Activity: 40%
[2]
  Activity: 0%
[3]
  Activity: 40%
[4]
  Activity: 0%
[5]
  Activity: 0%
[6]
  Activity: 40%

## C[C@H](NC(=O)Nc1ccccc1C(F)(F)F)c1ccccc1
[1]
  Activity: 0%
[2]
  Activity: 0%
[3]
  Activity: 0%
[4]
  Activity: 0%
[5]
  Activity: 10%
[6]
  Activity: 0%

## CCc1ccc(NC(=O)N[C@@H](C)c2ccccc2)cc1
[1]
  Activity: 0%
[2]
  Activity: 0%
[3]
  Activity: 0%
[4]
  Activity: 0%
[5]
  Activity: 0%
[6]
  Activity: 0%

## COc1cccc(NC(=O)N[C@@H](C)c2ccccc2)c1
[1]
  Activity: 0%
[2]
  Activity: 0%
[3]
  Activity: 0%
[4]
  Activity: 0%
[5]
  Activity: 0%
[6]
  Activity: 0%

## C[C@H](NC(=O)Nc1ccc(Cl)c(Cl)c1)c1ccccc1
[1]
  Activity: 0%
[2]
  Activity: 0%
[7]
  Activity: inactive
[4]
  Activity: 0%
[5]
  Activity: 0%
[6]
  Activity: 0%

## CC(=O)c1cccc(NC(=O)N[C@H](C)c2ccccc2)c1
[1]
  Activity: 0%
[2]
  Activity: 0%
[7]
  Activity: inactive
[4]
  Activity: 0%
[5]
  Activity: 0%
[6]
  Activity: 0%

## CCc1cccc(CC)c1NC(=O)N[C@H](C)c1ccccc1
[1]
  Activity: 0%
[2]
  Activity: 0%
[7]
  Activity: inactive
[4]
  Activity: 0%
[5]
  Activity: 0%
[6]
  Activity: 0%

## C[C@H](NC(=O)Nc1ccccc1Br)c1ccccc1
[1]
  Activity: 10%
[2]
  Activity: 0%
[7]
  Activity: inactive
[4]
  Activity: 0%
[5]
  Activity: 0%
[6]
  Activity: 0%

## CCCCc1ccc(NC(=O)N[C@@H](C)c2ccccc2)cc1
[1]
  Activity: 0%
[2]
  Activity: 0%
[7]
  Activity: inactive
[4]
  Activity: 10%
[5]
  Activity: 10%
[6]
  Activity: 0%

## C[C@H](NC(=O)Nc1ccc(Cl)cc1)c1ccccc1
[1]
  Activity: 0%
[2]
  Activity: 0%
[7]
  Activity: inactive
[4]
  Activity: 0%
[5]
  Activity: 0%
[6]
  Activity: 0%

## C[C@@H](NC(=O)Nc1cccc(Br)c1)c1ccccc1
[1]
  Activity: 10%
[2]
  Activity: 0%
[7]
  Activity: inactive
[4]
  Activity: 0%
[5]
  Activity: 0%
[6]
  Activity: 0%

## CCc1cccc(CC)c1NC(=O)N[C@@H](C)c1ccccc1
[1]
  Activity: 0%
[2]
  Activity: 0%
[7]
  Activity: inactive
[4]
  Activity: 0%
[5]
  Activity: 0%
[6]
  Activity: 0%

## C[C@@H](NC(=O)Nc1cccc(Cl)c1)c1ccccc1
[1]
  Activity: 10%
[2]
  Activity: 0%
[7]
  Activity: inactive
[4]
  Activity: 0%
[5]
  Activity: 0%
[6]
  Activity: 0%

## Cc1ccc(NC(=O)N[C@H](C)c2ccccc2)c(F)c1
[1]
  Activity: 0%
[2]
  Activity: 0%
[7]
  Activity: inactive
[4]
  Activity: 0%
[5]
  Activity: 0%
[6]
  Activity: 0%

## C[C@@H](NC(=O)Nc1cc(C(C)(C)C)ccc1C(C)(C)C)c1ccccc1
[1]
  Activity: 0%
[2]
  Activity: 0%
[7]
  Activity: inactive
[4]
  Activity: 0%
[5]
  Activity: 0%
[6]
  Activity: 0%

## C[C@H](NC(=O)Nc1ccc(F)c(F)c1)c1ccccc1
[1]
  Activity: 0%
[2]
  Activity: 0%
[7]
  Activity: inactive
[4]
  Activity: 0%
[5]
  Activity: 0%
[6]
  Activity: 0%

## CCOC(=O)c1ccccc1NC(=O)N[C@H](C)c1ccccc1
[1]
  Activity: 0%
[2]
  Activity: 0%
[7]
  Activity: inactive
[4]
  Activity: 0%
[5]
  Activity: 0%
[6]
  Activity: 0%

## C[C@@H](NC(=O)Nc1cccc(F)c1F)c1ccccc1
[1]
  Activity: 10%
[2]
  Activity: 0%
[7]
  Activity: inactive
[4]
  Activity: 0%
[5]
  Activity: 0%
[6]
  Activity: 0%

## C[C@@H](NC(=O)Nc1cccc(I)c1)c1ccccc1
[1]
  Activity: 10%
[2]
  Activity: 0%
[7]
  Activity: inactive
[4]
  Activity: 0%
[5]
  Activity: 0%
[6]
  Activity: 0%

## CC(=O)c1cccc(NC(=O)N[C@@H](C)c2ccccc2)c1
[1]
  Activity: 0%
[2]
  Activity: 0%
[7]
  Activity: inactive
[4]
  Activity: 0%
[5]
  Activity: 0%
[6]
  Activity: 0%

## C[C@@H](NC(=O)Nc1cc(F)ccc1F)c1ccccc1
[1]
  Activity: 0%
[2]
  Activity: 0%
[7]
  Activity: inactive
[4]
  Activity: 0%
[5]
  Activity: 0%
[6]
  Activity: 0%

## C[C@H](NC(=O)Nc1cc(C(F)(F)F)cc(C(F)(F)F)c1)c1ccccc1
[1]
  Activity: 0%
[2]
  Activity: 0%
[7]
  Activity: inactive
[4]
  Activity: 0%
[5]
  Activity: 0%
[6]
  Activity: 0%

## C[C@@H](NC(=O)Nc1ccc(F)cc1)c1ccccc1
[1]
  Activity: 0%
[2]
  Activity: 0%
[7]
  Activity: inactive
[4]
  Activity: 0%
[5]
  Activity: 0%
[6]
  Activity: 0%

## CCOC(=O)c1ccc(NC(=O)N[C@H](C)c2ccccc2)cc1
[1]
  Activity: 0%
[2]
  Activity: 0%
[7]
  Activity: inactive
[4]
  Activity: 0%
[5]
  Activity: 0%
[6]
  Activity: 0%

## CCCCc1ccc(NC(=O)N[C@H](C)c2ccccc2)cc1
[1]
  Activity: 0%
[2]
  Activity: 0%
[7]
  Activity: inactive
[4]
  Activity: 10%
[5]
  Activity: 10%
[6]
  Activity: 0%

## C[C@@H](NC(=O)Nc1cc(C(F)(F)F)cc(C(F)(F)F)c1)c1ccccc1
[1]
  Activity: 0%
[2]
  Activity: 0%
[7]
  Activity: inactive
[4]
  Activity: 0%
[5]
  Activity: 0%
[6]
  Activity: 0%

## C[C@@H](NC(=O)Nc1ccc(F)cc1F)c1ccccc1
[1]
  Activity: 0%
[2]
  Activity: 0%
[7]
  Activity: inactive
[4]
  Activity: 0%
[5]
  Activity: 0%
[6]
  Activity: 0%

## C[C@@H](NC(=O)Nc1cc(C(F)(F)F)ccc1F)c1ccccc1
[1]
  Activity: 0%
[2]
  Activity: 0%
[7]
  Activity: inactive
[4]
  Activity: 10%
[5]
  Activity: 80%
[6]
  Activity: 0%

## CC(=O)c1ccc(NC(=O)N[C@H](C)c2ccccc2)cc1
[1]
  Activity: 0%
[2]
  Activity: 0%
[7]
  Activity: inactive
[4]
  Activity: 0%
[5]
  Activity: 40%
[6]
  Activity: 0%

## CCOC(=O)c1cccc(NC(=O)N[C@@H](C)c2ccccc2)c1
[1]
  Activity: 0%
[2]
  Activity: 0%
[7]
  Activity: inactive
[4]
  Activity: 0%
[5]
  Activity: 0%
[6]
  Activity: 0%

## CCCCCCc1ccc(NC(=O)N[C@H](C)c2ccccc2)cc1
[1]
  Activity: 0%
[2]
  Activity: 0%
[7]
  Activity: inactive
[4]
  Activity: 0%
[5]
  Activity: 0%
[6]
  Activity: 0%

## C[C@@H](NC(=O)Nc1ccc(Br)cc1)c1ccccc1
[1]
  Activity: 0%
[2]
  Activity: 0%
[7]
  Activity: inactive
[4]
  Activity: 0%
[5]
  Activity: 0%
[6]
  Activity: 0%

## C[C@H](NC(=O)Nc1cccc(F)c1)c1ccccc1
[1]
  Activity: 10%
[2]
  Activity: 0%
[7]
  Activity: inactive
[4]
  Activity: 10%
[5]
  Activity: 10%
[6]
  Activity: 0%

## C[C@H](NC(=O)Nc1cccc(Cl)c1)c1ccccc1
[1]
  Activity: 10%
[2]
  Activity: 0%
[7]
  Activity: inactive
[4]
  Activity: 0%
[5]
  Activity: 0%
[6]
  Activity: 0%

## COc1ccccc1NC(=O)N[C@@H](C)c1ccccc1
[1]
  Activity: 0%
[2]
  Activity: 0%
[7]
  Activity: inactive
[4]
  Activity: 0%
[5]
  Activity: 0%
[6]
  Activity: 0%

## CC(C)c1ccc(NC(=O)N[C@H](C)c2ccccc2)cc1
[1]
  Activity: 0%
[2]
  Activity: 0%
[7]
  Activity: inactive
[4]
  Activity: 0%
[5]
  Activity: 0%
[6]
  Activity: 0%

## C[C@@H](NC(=O)Nc1ccc(C(F)(F)F)cc1)c1ccccc1
[1]
  Activity: 0%
[2]
  Activity: 0%
[7]
  Activity: inactive
[4]
  Activity: 0%
[5]
  Activity: 0%
[6]
  Activity: 0%

## C[C@H](NC(=O)Nc1cccc(Cl)c1Cl)c1ccccc1
[1]
  Activity: 0%
[2]
  Activity: 0%
[7]
  Activity: inactive
[4]
  Activity: 0%
[5]
  Activity: 0%
[6]
  Activity: 0%
